Results on four compounds are retold here after ChEMBL document CHEMBL1155559, “Hepatoprotective diastereomeric lignans from Saururus chinensis herbs” (J Nat Prod, 2000).

The structures appear in SMILES notation.

This assay deals with Hepatocyte. Nature of the assay: Hepatoprotective activity in Wistar rat CCL4-damaged hepatocyte assessed as blockade of glutamic pyruvic transaminase release at 100 uM relative to control. The class given is functional, cell-based.
Take `C[C@@H]1[C@H]2c3cc4c(cc3O[C@@]35OCOC3=CC(=O)[C@@H](C[C@H]1C)[C@@H]25)OCO4`: the Activity is 75.9%.
As for `C[C@@H]1[C@H]2c3cc4c(cc3O[C@@]35OCOC3=CC(=O)[C@H](C[C@H]1C)[C@H]25)OCO4` [SAUCHINONE A], the Activity is on record as 78.2%.
On to `C[C@@H]1[C@H]2c3cc4c(cc3O[C@@]35OCOC3=CC(=O)[C@H](C[C@H]1C)[C@@H]25)OCO4` [SAUCHINONE], for which the Activity was determined as 70.1%.
With `COc1cc(C2Oc3cc([C@H]4Oc5cc(O)cc(O)c5C(=O)[C@@H]4O)ccc3OC2CO)ccc1O` (some centres undefined) [SILIBININ] the figure was 76.6%.
